Values joined by “and” are separate entries in the source; they are usually repeats but may differ in a detail not shown here. Equal values may be shown once. Read-outs that look alike come from different tables or passages of the source. Marks after values point to notes of the source that are not given here.
Assays:
[1] = system: cytochrome P450 3A4 (CYP3A4); conditions: cited from earlier work
[2] = system: breast cancer resistance protein; conditions: cited from earlier work
[3] = format: in vivo, human
P‐glycoprotein (P‐gp) = conditions: cited from earlier work
[4] = cited from earlier work
[5] = Updated stage 1 / stage 2 population pharmacokinetic analysis; format: in vivo, human; conditions: for ACS subjects (θ13) effect on Vc/F, Estimate ± SE / Evening dosing (AM/PM = 2) (θ10) effect on ka, Estimate ± SE / NVAF subjects (θ12) effect on Vc/F, Estimate ± SE: fractional change; for Vd/F: Vc/F (θ3) apparent volume of distribution of the central compartment, Estimate ± SE; for D_WTB (θ11) baseline body weight effect on Vc/F, Estimate ± SE: power coefficient
[6] = cited from earlier work; remark: listed apart in the source
[7] = vs normal renal function, phase I; cited from earlier work
[8] = fractional change, stage 2 final ad hoc model
[9] = power coefficient, stage 2 final ad hoc model
[10] = relative to non‐Asian typical patients with NVAF
[11] = relative to the typical 70‐kg NVAF subject

ACS subjects (θ13) effect on Vc/F, Estimate ± SE [3, 8]: −0.184 ± 0.0463 | Evening dosing (AM/PM = 2) (θ10) effect on ka, Estimate ± SE [3, 8]: −0.436 ± 0.0237 | Female (θ15) effect on CLNR/F, Estimate ± SE [3, 8]: −0.227 ± 0.0269 | NVAF subjects (θ12) effect on Vc/F, Estimate ± SE [3, 8]: −0.0530 ± 0.0508 | CL renal ([3]; human, plasma, oral): 26.7 mL/min | Vd/F ([3]; human, plasma, oral): 30 ± 1.04 L | Age (θ14) effect on CLNR/F, Estimate ± SE [3, 9]: −0.414 ± 0.0727 | CL/F higher in Korean subjects ([3]; relative to non‐Asian subjects): 3.3% | CL/F lower in Japanese subjects ([3]; relative to non‐Asian subjects): 15.1% | CL/F lower in other Asian subjects ([3]; relative to non‐Asian subjects): 4.3% | change in daily AUCss, Japanese [3, 10]: 17.7% | change in daily AUCss, Korean [3, 10]: −3.2% | change in daily AUCss, other Asian races [3, 10]: 4.5% | change in population mean total CL/F, Japanese [3, 10]: −15.1% | change in population mean total CL/F, Korean [3, 10]: 3.3% | change in population mean total CL/F, other Asian races [3, 10]: −4.3% | CL/F apparent total clearance ([3]; simple sum of CLR/F and CLNR/F, stage 2 final ad hoc model): 3.62 ^a L/hour | Logit for reduction in Frel at 50 mg (I50) (θ9), Estimate ± SE ([3]; stage 2 final ad hoc model): −0.327 ± 0.0519 | Shape parameter for Frel (γ) (θ8), Estimate ± SE ([3]; stage 2 final ad hoc model): 0.875 ± 0.0779 | Vp/F (θ5) apparent volume of distribution of the peripheral compartment, Estimate ± SE ([3]; stage 2 final ad hoc model): 27.3 ± 2.78 L | ka (θ1) absorption rate constant, Estimate ± SE ([3]; stage 2 final ad hoc model): 0.471 ± 0.0218 h⁻¹ | predicted increase in AUCss, moderate renal impairment ([5]; NVAF, cCrCL 40 mL/minute, compared with normal renal function): 28% | predicted increase in AUCss, mild renal impairment ([5]; NVAF, cCrCL = 65 mL/minute, compared with normal renal function): 9% | increase in exposure with strong/moderate inhibitors of both CYP3A4 and P‐gp ([5]; PPK estimate): ~ 17% | CLR/F (θ2) apparent renal clearance, Estimate ± SE ([5]; cCrCL reference 80 mL/minute, stage 2 final model): 1.57 ± 0.117 L/h | reduced CL/F, ACS ([5]; compared with healthy subjects): 21.5% | reduced CL/F, Asian race ([5]; compared with non‐Asian subjects): 11.9% | ACS subjects (θ13) effect on Vc/F, Estimate ± SE ([5]; stage 2 final model): −0.180 ± 0.0446 | Evening dosing (AM/PM = 2) (θ10) effect on ka, Estimate ± SE ([5]; stage 2 final model): −0.433 ± 0.0236 | NVAF subjects (θ12) effect on Vc/F, Estimate ± SE ([5]; stage 2 final model): −0.0405 ± 0.0491 | ACS subjects (θ13) effect on Vc/F, Estimate ± SE ([5]; updated stage 1 final model): −0.177 ± 0.0449 | Evening dosing (AM/PM = 2) (θ10) effect on ka, Estimate ± SE ([5]; updated stage 1 final model): −0.434 ± 0.0234 | NVAF subjects (θ12) effect on Vc/F, Estimate ± SE ([5]; updated stage 1 final model): −0.0217 ± 0.0501 | effect of strong CYP3A4/P‐gp inducers on CL/F ([5]; full stage 2 model, not included in final model): very small and poorly estimated | CL renal ([5]; human, plasma, oral): 26.2 mL/min | Vd/F ([5]; human, plasma, oral, stage 2 final model): 30 ± 0.971 L | Vd/F ([5]; human, plasma, oral, updated stage 1 final model): 29.8 ± 0.981 L | impact of Asian race on exposure ([5]; in vivo): < 15% | decrease in ka with administration in the evening ([5]; relative to administration in the morning or afternoon): 43% | increase in Vc/F for a 90‐kg subject [5, 11]: 22% | reduction in Vc/F for a 50‐kg subject [5, 11]: 23.3% | Logit for reduction in Frel at 50 mg (I50) (θ9), Estimate ± SE ([5]; stage 2 final model): −0.322 ± 0.0512 | Shape parameter for Frel (γ) (θ8), Estimate ± SE ([5]; stage 2 final model): 0.857 ± 0.0684 | Vp/F (θ5) apparent volume of distribution of the peripheral compartment, Estimate ± SE ([5]; stage 2 final model): 27.0 ± 2.03 L | ka (θ1) absorption rate constant, Estimate ± SE ([5]; stage 2 final model): 0.473 ± 0.0208 h⁻¹ | Logit for reduction in Frel at 50 mg (I50) (θ9), Estimate ± SE ([5]; updated stage 1 final model): −0.321 ± 0.0512 | Shape parameter for Frel (γ) (θ8), Estimate ± SE ([5]; updated stage 1 final model): 0.853 ± 0.0693 | Vp/F (θ5) apparent volume of distribution of the peripheral compartment, Estimate ± SE ([5]; updated stage 1 final model): 26.7 ± 1.89 L | ka (θ1) absorption rate constant, Estimate ± SE ([5]; updated stage 1 final model): 0.471 ± 0.0204 h⁻¹ | change in exposure due to individual covariate (demographic) effects ([5]; vs the reference NVAF subject, except severe renal impairment): < 25% and ≤ 25%
Compound: COc1ccc(-n2nc(C(N)=O)c3c2C(=O)N(c2ccc(N4CCCCC4=O)cc2)CC3)cc1 [apixaban]
pathway of plasma elimination [1]: metabolism primarily by cytochrome P450 3A4 (CYP3A4) | substrate status [2]: substrate | D_WTB (θ11) baseline body weight effect on Vc/F, Estimate ± SE [3, 9]: 0.792 ± 0.0648 | substrate status (P‐glycoprotein (P‐gp)): substrate | increase in AUC when co‐administered with diltiazem ([4]; diltiazem, a moderate CYP3A4/P‐gp inhibitor): 40% | increase in AUC when co‐administered with ketoconazole ([4]; ketoconazole, a strong CYP3A4/P‐gp inhibitor): 99% | D_WTB (θ11) baseline body weight effect on Vc/F, Estimate ± SE ([5]; stage 2 final model): 0.790 ± 0.0645 | D_WTB (θ11) baseline body weight effect on Vc/F, Estimate ± SE ([5]; updated stage 1 final model): 0.806 ± 0.0649 | oral bioavailability [6]: ~ 50% | steady‐state volume of distribution [6]: ~ 21 liters | time dependency of pharmacokinetics [6]: no time dependency | total clearance [6]: 3.3 L/h | Renal clearance as share of total systemic clearance ([6]; following intravenous administration, healthy subjects): ~ 27% | half‐life ([6]; following oral administration): ~ 12 hours | dose dependence of exposure ([6]; therapeutic dose range (2.5–10 mg)): dose‐proportional increase in exposure | higher estimated AUCINF, mild renal impairment [7]: ~ 16% | higher estimated AUCINF, moderate renal impairment [7]: ~29% | higher estimated AUCINF, severe renal impairment [7]: ~44%
